These results are taken from US6355410B1, “Method of reducing cell proliferation by inhibiting the Na+/H+ exchanger and inducing apoptosis” (priority 1998, dated 2002).

Bounds are passed on as bounds.

Assay [1] has as its target NHE-1 (Homo sapiens, UniProt P19634). As to conditions: literature reference 19; cited from earlier work.
Assay [2] deals with KG-1a cells. In words: Apoptosis (annexin-V) of KG-1a cells incubated with HMA. Type of assay: cell-based, human. As to conditions: 10^-4M HMA, 5h, without HMA 2% to 9%. The procedure:
(§1) Leukaemic cell lines (KG-1a and CEM) were incubated for varying periods of time with 10^−4M HMA and pHi and apoptosis measured. For both cell lines, in the absence of HMA, pHi ranged from 7.43±0.1 at time zero to 6.9±0.08 after 5h of incubation. However, after 5h with HMA, the pHi had decreased to 5.6±0.07 (n=4) for KG-1a and 6.1±0.06 (n=4) for CEM cells. In the absence of HMA, the percentage of KG-1a and CEM cells undergoing apoptosis, measured by annexin-V, ranged from 2% to 9% for the duration of the experiment, whereas by 5h in the presence of HMA, the percentage of KG-1a or CEM cells undergoing apoptosis ranged from 70-80%.
(§2) The following human leukemic cell lines were originally obtained from ATCC (Rockville, Md.): KG-1a (BM acute myelogenous leukemia), Jurkat (acute T-cell leukemia), Molt-4 (PB acute lymphoblastic leukemia), CEM (PB acute lymphoblastic leukemia), K562 (chronic myeloid leukemia), THP-1 (acute monocytic leukemia), Nalm-6 (B-cell leukemia). All cell lines were cultured in Dulbecco's Modified Eagles Medium (DMEM) containing 10% heat-inactivated fetal bovine serum (FBS). Only cells in log phase growth were used.
(§3) Two methods were used to determine if reduction in pHi induced apoptosis. […]

Assay [3] deals with primary ALL patient leukaemic cells. The assay can be described thus: Apoptosis (annexin-V and TUNEL) of fresh ALL patient leukaemic cells incubated with HMA. Format: cell-based, human. The procedure:
(§4) Intracellular pH was measured by both FRIM and flow cytometry, while apoptosis was measured by annexin-V and TUNEL. […] For this reason, pHi values for 1h, 3h and 5h were set at 5.0. After 1h, the proportion of cells incubated with HMA undergoing apoptosis was about 85% using annexin-V and about 60% using the TUNEL technique.
Two methods were used to determine if reduction in pHi induced apoptosis. The first used annexin-V conjugated to fluorescein isothiocyanate (FITC) (Pharmingen, San Diego, Calif.) to determine the translocation of phosphatidylserine from the inside to the outside of the plasma membrane. Cells were counter-stained with propidium iodide (PI) to determine the proportion of necrotic cells. Cell staining was performed according to the manufacturer's instructions. The second technique used terminal deoxynucleotidyl transferase (TdT)-mediated dUTP nick-end labeling (TUNEL) of fragmented DNA. Fluorochrome (FITC)-labelling of DNA (Boehringer Mannhein, Germany) was performed according to the manufacturer's instructions and measurements performed by flow cytometry.
The amiloride analogue, HMA (Sigma Chemicals, St. Louis, Mo.) was dissolved in dimethylsulphoxide (DMSO) and a stock solution (10^−3M) prepared in DMEM. Cells were incubated at concentrations ranging from 10^−7M to 10^−4M for varying periods of time specified in the results. After incubation, cells were washed and aliquoted according to the type of measurement (pHi or apoptosis) performed. Controls included cells not treated with HMA.

In assay [4] the test system is CEM cells. The assay can be described thus: Intracellular pH of CEM cells incubated with HMA. Type of assay: cell-based, human. The conditions noted are these: 10^-4M HMA, 5h, n=4, without HMA 6.9±0.08 after 5h. As to the method:
as §1, with “70-80%. […]” for “70-80%.”
(§5) Measurement of pHi for hemopoietic cells has been described in detail elsewhere (8). Briefly, intracellular pH was measured by both flow cytometry and FRIM by incubating cells with carboxy SemiNaphthoRhodaFluor-1 acetoxymethyl ester, acetate (carboxy SNARF-1 AM, Molecular Probes, Eugene, Oreg.) for 15 min at room temperature. […] Flow cytometric results were analyzed using WinList Software (Verity Software House Inc. Topsham, ME) to obtain fluorescence ratio measurements. For both flow cytometry and FRIM analysis, the calibration curves were obtained and sample pHi values determined from the fluorescence ratio values using Table Curve software (SPSS Inc., Chicago, Ill.). […]

Assay [5] concerns KG-1a cells. In words: RNA degradation in KG-1a cells by denaturing RNA gel electrophoresis. Type of assay: cell-based, human. As to conditions: 10^-4M HMA.
Assay [6] relates to primary ALL patient leukaemic cells. The assay can be described thus: Intracellular pH (FRIM and flow cytometry) of fresh ALL patient leukaemic cells incubated with HMA. Format: cell-based, human. As to conditions: 10^-4M HMA, 1h, 3h and 5h, values set at 5.0. As to the method: as §4
as §5, with “temperature. SNARF is excited at 488 nm and emits at 580 nm and 640 nm. The ratio of the emission wavelengths 640/580 was used (8) to estimate the pHi from a calibration curve. The calibration curve was performed using the nigericin clamp technique (21).” for “temperature.”
(Flow cytometry measures light scatter and fluorescence of single cells or particles in a stream.)

Assay [7] has as its system normal peripheral blood cells. In words: Intracellular pH (flow cytometry and FRIM) of normal peripheral blood cells incubated with HMA. Type of assay: cell-based, human. As to the method:
Normal peripheral blood cells were incubated in the absence or presence of the NHE-1 inhibitor, 5-(N,N-hexamethylene)-amiloride (HMA), at concentrations ranging from 10^−7M to 10^−4M for up to 5h. Cells were then aliquoted so that pHi and apoptotic measurements could be performed. In these experiments, pHi was measured using both flow cytometry and fluorescence ratio imaging microscopy (FRIM). […] The proportion of necrotic cells measured by propidium iodide (PI) remained constant at about 5% in the absence or presence of HMA for each time point measured. […] It is interesting to note that both methods measured about 25% apoptotic cells when pHi was reduced to about 6.8. […]
as §5

The test system of assay [8] is CEM cells. In words: Apoptosis (annexin-V) of CEM cells incubated with HMA. Format: cell-based, human. The conditions noted are these: 10^-4M HMA, 5h, without HMA 2% to 9%. As to the method:
as §1, §2, §3

Assay [9] has as its system normal peripheral blood cells. Type of assay: cell-based, human. As to the method: Normal peripheral blood cells were incubated in the absence or presence of the NHE-1 inhibitor, 5-(N,N-hexamethylene)-amiloride (HMA), at concentrations ranging from 10^−7M to 10^−4M for up to 5h. Cells were then aliquoted so that pHi and apoptotic measurements could be performed. In these experiments, pHi was measured using both flow cytometry and fluorescence ratio imaging microscopy (FRIM). […] The proportion of necrotic cells measured by propidium iodide (PI) remained constant at about 5% in the absence or presence of HMA for each time point measured. […] It is interesting to note that both methods measured about 25% apoptotic cells when pHi was reduced to about 6.8. As shown in the next section, a pHi of 6.8 appears to be a critical value below which increased apoptosis occurs.
Two methods were used to determine if reduction in pHi induced apoptosis. The first used annexin-V conjugated to fluorescein isothiocyanate (FITC) (Pharmingen, San Diego, Calif.) to determine the translocation of phosphatidylserine from the inside to the outside of the plasma membrane. Cells were counter-stained with propidium iodide (PI) to determine the proportion of necrotic cells. Cell staining was performed according to the manufacturer's instructions. The second technique used terminal deoxynucleotidyl transferase (TdT)-mediated dUTP nick-end labeling (TUNEL) of fragmented DNA. […]

The test system of assay [10] is KG-1a cells. The assay can be described thus: Intracellular pH of KG-1a cells incubated with HMA. Format: cell-based, human. As to conditions: 10^-4M HMA, 5h, n=4, without HMA 6.9±0.08 after 5h. The procedure:
as §1, with “70-80%. […]” for “70-80%.”
as §5

The test system of assay [11] is normal peripheral blood (PB) cells. In words: Intracellular pH (SNARF, flow cytometry) of peripheral blood incubated with phorbol ester. The conditions noted are these: PB incubated with phorbol ester (10^-6 M PMA, 5 min); unstimulated PB 7.03±0.04. Type of assay: cell-based, human. The procedure: The pHi and the percentage of cells in S-phase of the cell cycle were simultaneously determined in aliquots of the same sample, using propidium iodide labeling. Prior to analysis, peripheral blood was also incubated with phorbol ester to activate the NHE-1. […] Furthermore, there was a direct correlation between pHi and proportion of cells in S-phase in both normal and neoplastic haemopoietic cells of various origins (FIG. 4). Thus, intracellular alkalinisation is associated with an increased proliferation and possibly transformation of haemopoietic cells. We hypothesized that unregulated proliferation of leukaemic cells might, at least in part, be due to suppression of normal apoptotic mechanisms. […]
Measurement of pHi for hemopoietic cells has been described in detail elsewhere (8). Briefly, intracellular pH was measured by both flow cytometry and FRIM by incubating cells with carboxy SemiNaphthoRhodaFluor-1 acetoxymethyl ester, acetate (carboxy SNARF-1 AM, Molecular Probes, Eugene, Oreg.) for 15 min at room temperature. […] Flow cytometric results were analyzed using WinList Software (Verity Software House Inc. Topsham, ME) to obtain fluorescence ratio measurements. For both flow cytometry and FRIM analysis, the calibration curves were obtained and sample pHi values determined from the fluorescence ratio values using Table Curve software (SPSS Inc., Chicago, Ill.).

Assay [12] shares this test system. In words: Proportion of cells in S-phase (propidium iodide) of peripheral blood incubated with phorbol ester. Type of assay: cell-based, human. The conditions noted are these: untreated PB 1.19%±0.34%. The procedure: The pHi and the percentage of cells in S-phase of the cell cycle were simultaneously determined in aliquots of the same sample, using propidium iodide labeling. Prior to analysis, peripheral blood was also incubated with phorbol ester to activate the NHE-1. […] Furthermore, there was a direct correlation between pHi and proportion of cells in S-phase in both normal and neoplastic haemopoietic cells of various origins (FIG. 4). Thus, intracellular alkalinisation is associated with an increased proliferation and possibly transformation of haemopoietic cells. We hypothesized that unregulated proliferation of leukaemic cells might, at least in part, be due to suppression of normal apoptotic mechanisms. In this case, inhibitors of the NHE-1 would be expected to induce apoptosis in leukaemic cells, and we therefore examined the effects of NHE-1 inhibitors upon such cells.
Normal PB cells were incubated for 5 min with 10^−6 M phorbol-12-myristate-13-acetate (PMA, Sigma Chemical Company, St. Louis, Mo.) to non-specifically activate the NHE-1. […]
The proportion of cells in S-phase of the cell cycle was determined using the propidium iodide technique using the CycleTEST Plus DNA reagent kit (Becton-Dickinson, San Jose, Calif.). Data were acquired by flow cytometry, and analyzed using the Modfit LT software program (Verity Software House Inc).

The mark [13] stands for this setting: ALL patient cells, 10^-4M HMA, 1h.

Chain of NHE-1 (P19634 whole entry, species assumed): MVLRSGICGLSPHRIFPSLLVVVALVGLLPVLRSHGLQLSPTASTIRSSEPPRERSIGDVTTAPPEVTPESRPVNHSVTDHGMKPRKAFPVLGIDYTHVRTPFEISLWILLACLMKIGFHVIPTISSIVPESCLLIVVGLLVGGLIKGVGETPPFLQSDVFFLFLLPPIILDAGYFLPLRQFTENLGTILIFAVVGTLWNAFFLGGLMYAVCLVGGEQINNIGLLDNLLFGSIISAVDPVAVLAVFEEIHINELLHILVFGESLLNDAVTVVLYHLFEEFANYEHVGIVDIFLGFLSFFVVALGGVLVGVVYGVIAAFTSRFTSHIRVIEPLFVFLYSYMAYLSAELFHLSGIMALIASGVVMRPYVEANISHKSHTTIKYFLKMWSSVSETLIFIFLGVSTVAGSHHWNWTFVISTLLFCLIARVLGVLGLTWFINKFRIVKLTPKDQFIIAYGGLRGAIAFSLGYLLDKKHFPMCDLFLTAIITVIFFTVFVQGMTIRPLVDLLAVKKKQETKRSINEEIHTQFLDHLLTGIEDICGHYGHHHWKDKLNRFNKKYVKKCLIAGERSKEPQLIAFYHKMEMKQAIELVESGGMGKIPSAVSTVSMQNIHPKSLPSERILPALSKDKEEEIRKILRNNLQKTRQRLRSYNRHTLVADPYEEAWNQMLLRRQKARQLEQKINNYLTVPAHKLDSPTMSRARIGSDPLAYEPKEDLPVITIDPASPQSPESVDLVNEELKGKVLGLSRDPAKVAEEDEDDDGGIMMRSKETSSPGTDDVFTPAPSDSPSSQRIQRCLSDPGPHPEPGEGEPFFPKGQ

`CCN(c1nc(N)c(C(=O)N=C(N)N)nc1Cl)C(C)C` [EIPA, 5-(N-ethyl-N-isopropyl) amiloride]: in assay [1], the “potency and specificity of NHE-1 inhibition relative to amiloride” value was “greater potency and specificity of NHE-1 inhibition than amiloride itself”.

For the compound `NC(N)=NC(=O)c1nc(Cl)c(N2CCCCCC2)nc1N` [HMA, 5-(N,N-hexamethylene)-amiloride], the “percentage of cells undergoing apoptosis, annexin-V” value in assay [2] was 70-80%. In addition, in assay [3] (setting [13]), the “proportion of cells undergoing apoptosis, TUNEL” value is reported as “about 60%” and the “proportion of cells undergoing apoptosis, annexin-V” value is on record as “about 85%”. Further, in assay [3] (ALL patient cells, 10^-4M HMA, 5h), the “apoptotic cells, both methods (annexin-V and TUNEL)” value is listed as “over 90%”. The “sensitivity of primary ALL cells versus normal PB” value in assay [3] (differential effect of HMA between normal and acute lymphoblastic leukaemic cells) is reported as “greater sensitivity to HMA than normal PB”. Further, the “time to induction of apoptosis” value in [3] (primary leukemic cells) is reported as ≤ 1 h. Further, the “cells either dead or undergoing apoptosis” value in [3] (primary leukemic cells, between 3 and 5 h of incubation) was “more than 90%”. In assay [4], this compound gave a pHi of 6.1±0.06. Also, in [5], the “onset of RNA degradation after addition” value is “began to degrade between 30 min and 1h”; the “time to total RNA degradation” value is given as ≤ 3 h. Moreover, the “pHi measured by flow cytometry” value in assay [6] is “too low to calibrate”. Further, in [7] (HMA 10^-7M to 10^-4M, up to 5h, flow cytometry and FRIM), the “inhibition (decrease of pHi), time and concentration dependence” value was “greatest inhibition occurred at 5h, using the highest HMA concentration”. The “pHi reduced to” value in assay [7] (normal PB incubated with HMA, pHi at which about 25% apoptotic cells were measured) is “about 6.8”. In assay [8], the “percentage of cells undergoing apoptosis, annexin-V” value is given as 70-80%. The “proportion of apoptotic cells, time and concentration dependence” value in assay [9] (HMA 10^-7M to 10^-4M, up to 5h, annexin-V and TUNEL) is “greatest proportion of apoptotic cells was found after 5h incubation with 10^−4M HMA”. For the same compound, the apoptotic cells result in assay [9] (normal PB with HMA, both methods (annexin-V, TUNEL), when pHi reduced to about 6.8) was “about 25%”. Moreover, the “potency and specificity of NHE-1 inhibition relative to amiloride” value in assay [1] was “greater potency and specificity of NHE-1 inhibition than amiloride itself”. Also, the pHi in assay [10] was found to be 5.6±0.07.

Take `CCCCCCCCCCCCCC(=O)O[C@@H]1[C@@H](C)[C@@]2(O)[C@@H](C=C(CO)C[C@]3(O)C(=O)C(C)=C[C@@H]23)[C@@H]2C(C)(C)[C@]12OC(C)=O` [phorbol ester, phorbol-12-myristate-13-acetate]: the pHi in [11] is reported as 7.32±0.043. Moreover, the “proportion of cells in S-phase” value in [12] is 8.7%±0.17%.
